The test has as its target Oplophorus-luciferin 2-monooxygenase catalytic subunit (Oplophorus gracilirostris, UniProt Q9GV45). The experiment in a line: NanoLuc Inhibition Assay. As for the experimental part:
NanoLuc enzyme was diluted to 0.4 ng/mL in CO2 independent media + 10% FBS to make the detection reagent. A 3× dilution series of each inhibitor was then made in the detection reagent. A "no inhibitor" control was also made for each sample. A total of 50 μL of each inhibitor dilution was mixed with 50 μL of NanoGlo buffer containing 20 μM furimazine (final furimazine concentration is 10 μM, which is atKM), and luminescence was measured. Each sample was normalized to the "no inhibitor" control.

Chain of Oplophorus-luciferin 2-monooxygenase catalytic subunit (Q9GV45 whole entry): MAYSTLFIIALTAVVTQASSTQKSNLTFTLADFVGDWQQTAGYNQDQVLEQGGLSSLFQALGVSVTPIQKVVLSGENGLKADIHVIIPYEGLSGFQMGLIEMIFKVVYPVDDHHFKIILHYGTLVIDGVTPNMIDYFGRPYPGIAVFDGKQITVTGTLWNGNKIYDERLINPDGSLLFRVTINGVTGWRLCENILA

In turn, `CCN(C(=O)Cn1c(C(=O)N[C@H]2CC[C@H](C(=O)NCCCCCCNC(=O)[C@H](CC(=O)O)NC(=O)[C@H](CC(=O)O)NC(=O)[C@H](CC(=O)O)NC(C)=O)CC2)cc2sccc21)c1cccc(C)c1` [(11S,14S,17S)-17-Acetamido-11,14-bis(carboxymethyl)-1-(trans-4-(4-(2-(ethyl(m-tolyl)amino)2-oxoethyl)-4H-thieno[3,2-b]pyrrole-5-carboxamido)cyclohexyl)-1,10,13,16-tetraoxo-2,9,12,15tetraazanonadecan-19-oic acid (46)] showed an IC50 of 0.066 µM.

The values above are taken from BindingDB's records for doi:10.1021/acschembio.6b01129 (Promega Biosciences LLC, 2017).
